Values joined by “and” are separate entries in the source; they are usually repeats but may differ in a detail not shown here. Equal values may be shown once. Inconclusive results and toxic doses are left out.
Tested on: BDF1 mice, B16 melanoma ip, median survival T/C
Assay: NCI In Vivo Anticancer Drug Screen. Data for tumor model B16 Melanoma (intraperitoneal) in B6D2F1 (BDF1) mice
Conditions: endpoint: median survival time, higher = longer survival
How it was run: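 Vehicle-treated animals serve as the reference (C); treated animals (T) are scored for survival or tumor size after tumor transplantation.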

[1] = dose: 0.5 mg/kg/injection, schedule: Q01DX009 (ip), vehicle: saline with Tween-80
[2] = dose: 1.0 mg/kg/injection, schedule: Q01DX009 (ip), vehicle: saline with Tween-80
[3] = dose: 2.0 mg/kg/injection, schedule: Q01DX009 (ip), vehicle: saline with Tween-80
[4] = dose: 5.0 mg/kg/injection, schedule: Q01DX009 (ip), vehicle: Klucel (hydroxypropylcellulose) (HPC)
[5] = dose: 25.0 mg/kg/injection, schedule: Q01DX009 (ip), vehicle: Klucel (hydroxypropylcellulose) (HPC)
[6] = dose: 50.0 mg/kg/injection, schedule: Q01DX009 (ip), vehicle: Klucel (hydroxypropylcellulose) (HPC)
[7] = dose: 12.5 mg/kg/injection, schedule: Q01DX009 (ip), vehicle: Klucel (hydroxypropylcellulose) (HPC)
[8] = dose: 100.0 mg/kg/injection, schedule: Q01DX009 (ip), vehicle: Klucel (hydroxypropylcellulose) (HPC)
[9] = dose: 50.0 mg/kg/injection, schedule: Q01DX009 (ip), vehicle: saline with Tween-80
[10] = dose: 100.0 mg/kg/injection, schedule: Q01DX009 (ip), vehicle: saline with Tween-80
[11] = dose: 200.0 mg/kg/injection, schedule: Q01DX009 (ip), vehicle: saline with Tween-80
[12] = dose: 6.25 mg/kg/injection, schedule: Q01DX009 (ip), vehicle: saline with Tween-80
[13] = dose: 12.5 mg/kg/injection, schedule: Q01DX009 (ip), vehicle: saline with Tween-80
[14] = dose: 25.0 mg/kg/injection, schedule: Q01DX009 (ip), vehicle: saline with Tween-80
[15] = dose: 100.0 mg/kg/injection, schedule: Q04DX003 (ip), vehicle: saline with Tween-80
[16] = dose: 200.0 mg/kg/injection, schedule: Q04DX003 (ip), vehicle: saline with Tween-80
[17] = dose: 400.0 mg/kg/injection, schedule: Q04DX003 (ip), vehicle: saline with Tween-80
[18] = dose: 0.31 mg/kg/injection, schedule: Q01DX009 (ip), vehicle: saline with Tween-80
[19] = dose: 0.62 mg/kg/injection, schedule: Q01DX009 (ip), vehicle: saline with Tween-80
[20] = dose: 1.25 mg/kg/injection, schedule: Q01DX009 (ip), vehicle: saline with Tween-80
[21] = dose: 2.5 mg/kg/injection, schedule: Q01DX009 (ip), vehicle: saline with Tween-80

## c1ccc(-c2nc3cnccc3o2)cc1
dose: 3.13 mg/kg/injection, schedule: Q04DX003 (ip), vehicle: Klucel (hydroxypropylcellulose) (HPC)
  T/C: 91 % of control
dose: 6.25 mg/kg/injection, schedule: Q04DX003 (ip), vehicle: Klucel (hydroxypropylcellulose) (HPC)
  T/C: 100 % of control
dose: 12.5 mg/kg/injection, schedule: Q04DX003 (ip), vehicle: Klucel (hydroxypropylcellulose) (HPC)
  T/C: 91 % of control and 97 % of control

## COc1cc2ccncc2cc1O
dose: 6.25 mg/kg/injection, schedule: Q01DX009 (ip), vehicle: water
  T/C: 104 % of control
dose: 12.5 mg/kg/injection, schedule: Q01DX009 (ip), vehicle: water
  T/C: 95 % of control
dose: 25.0 mg/kg/injection, schedule: Q01DX009 (ip), vehicle: water
  T/C: 109 % of control
dose: 50.0 mg/kg/injection, schedule: Q01DX009 (ip), vehicle: water
  T/C: 98 % of control

## c1ccc(-c2csc3c4ccccc4c4ccccc4[n+]23)cc1
[1]
  T/C: 95 % of control
[2]
  T/C: 95 % of control
[3]
  T/C: 93 % of control

## CN(C)N=Nc1cccc(C(N)=O)c1
[4]
  T/C: 103 % of control and 121 % of control
dose: 10.0 mg/kg/injection, schedule: Q01DX009 (ip), vehicle: Klucel (hydroxypropylcellulose) (HPC)
  T/C: 106 % of control and 113 % of control
dose: 20.0 mg/kg/injection, schedule: Q01DX009 (ip), vehicle: Klucel (hydroxypropylcellulose) (HPC)
  T/C: 111 % of control and 123 % of control
dose: 80.0 mg/kg/injection, schedule: Q01DX009 (ip), vehicle: Klucel (hydroxypropylcellulose) (HPC)
  T/C: 101 % of control and 118 % of control
dose: 100.0 mg/kg/injection, schedule: Q01DX009 (ip), vehicle: saline
  T/C: 46 % of control
dose: 160.0 mg/kg/injection, schedule: Q01DX009 (ip), vehicle: Klucel (hydroxypropylcellulose) (HPC)
  T/C: 113 % of control

## O=c1oc(-c2ccccc2Cl)nc2cc(Cl)ccc12
[5]
  T/C: 113 % of control
[6]
  T/C: 90 % of control

## CCc1ccccc1N1CCN(C(=O)c2cc(OC)c(OC)c(OC)c2)CC1
[7]
  T/C: 88 % of control
[5]
  T/C: 94 % of control
[6]
  T/C: 94 % of control

## C=Cc1c(C)c2cc3[nH]c(cc4nc(cc5nc(cc1[nH]2)C(C)=C5CCC(=O)O)C(CCC(=O)O)=C4C)c(C)c3C=C
dose: 6.25 mg/kg/injection, schedule: Q01DX009 (ip), vehicle: Klucel (hydroxypropylcellulose) (HPC)
  T/C: 97 % of control
[7]
  T/C: 104 % of control
[5]
  T/C: 104 % of control
[6]
  T/C: 101 % of control

## CC(CN(C)C)C(=O)c1ccccc1 (stereo not given)
[5]
  T/C: 106 % of control
[6]
  T/C: 90 % of control
[8]
  T/C: 96 % of control

## CSCCC1NC(=O)C(C(C)=Nc2ccccc2)=C1O (stereo not given)
[9]
  T/C: 100 % of control
[10]
  T/C: 96 % of control
[11]
  T/C: 95 % of control

## Cc1cccc(OCC(=O)O)c1
[12]
  T/C: 106 % of control
[13]
  T/C: 93 % of control
[14]
  T/C: 86 % of control

## COC(=O)c1cc(C)c(Br)c(N)c1
dose: 37.5 mg/kg/injection, schedule: Q04DX003 (ip), vehicle: Klucel (hydroxypropylcellulose) (HPC)
  T/C: 97 % of control
dose: 75.0 mg/kg/injection, schedule: Q04DX003 (ip), vehicle: Klucel (hydroxypropylcellulose) (HPC)
  T/C: 92 % of control
dose: 150.0 mg/kg/injection, schedule: Q04DX003 (ip), vehicle: Klucel (hydroxypropylcellulose) (HPC)
  T/C: 94 % of control

## O=C1C(Cl)=C(N=Nc2c(Cl)c(O)c3ccccc3c2O)C(=O)c2ccccc21
dose: 12.5 mg/kg/injection, schedule: Q01DX009 (ip), vehicle: saline
  T/C: 89 % of control
dose: 25.0 mg/kg/injection, schedule: Q01DX009 (ip), vehicle: saline
  T/C: 86 % of control

## Cc1ccc(NC(=O)Nc2cccc(Cl)c2C)cc1NC(=O)Nc1cccc(Cl)c1C
[12]
  T/C: 94 % of control
[13]
  T/C: 86 % of control
[14]
  T/C: 88 % of control

## NCC(=O)NCC(=O)NC(Cc1ccc(O)cc1)C(=O)O (stereo not given)
[9]
  T/C: 104 % of control
[10]
  T/C: 94 % of control
[11]
  T/C: 102 % of control
dose: 400.0 mg/kg/injection, schedule: Q01DX009 (ip), vehicle: saline with Tween-80
  T/C: 95 % of control

## CCOC(=O)C(=CN1CCCCC1)C(=O)OCC
[10]
  T/C: 99 % of control
[15]
  T/C: 95 % of control
[11]
  T/C: 100 % of control
[16]
  T/C: 97 % of control
[17]
  T/C: 95 % of control

## CN1CCC23c4c5ccc(O)c4OC2C(O)C=CC3C1C5 (stereo not given)
dose: 32.0 mg/kg/injection, schedule: Q01DX009 (ip), vehicle: saline
  T/C: 114 % of control
dose: 64.0 mg/kg/injection, schedule: Q01DX009 (ip), vehicle: saline
  T/C: 111 % of control
dose: 128.0 mg/kg/injection, schedule: Q01DX009 (ip), vehicle: saline
  T/C: 100 % of control
dose: 256.0 mg/kg/injection, schedule: Q01DX009 (ip), vehicle: saline
  T/C: 94 % of control

## O=C(Oc1cccc(OC(=O)c2ccc(Cl)cc2)c1)c1ccc(Cl)cc1
[8]
  T/C: 89 % of control
dose: 200.0 mg/kg/injection, schedule: Q01DX009 (ip), vehicle: Klucel (hydroxypropylcellulose) (HPC)
  T/C: 89 % of control

## CC1=CC(=O)c2ccccc2C1=O
[14]
  T/C: 108 % of control and 118 % of control

## CCOc1ccc(NC(=O)Nc2ccccc2)cc1
[10]
  T/C: 86 % of control

## CC12CCC(O)CC1CCC1C2CCC2(C)C(c3ccc(=O)oc3)CCC12O (stereo not given)
[18]
  T/C: 98 % of control
[19]
  T/C: 94 % of control
[20]
  T/C: 99 % of control
[21]
  T/C: 99 % of control

## NC(Cc1c[nH]c2ccc(N(CCCl)CCCl)cc12)C(=O)O (stereo not given)
dose: 0.25 mg/kg/injection, schedule: Q01DX009 (ip), vehicle: saline with Tween-80
  T/C: 159 % of control
[1]
  T/C: 163 % of control and 185 % of control
[2]
  T/C: 180 % of control and 226 % of control
[3]
  T/C: 184 % of control

## C[C@]12CC[C@H](OC(=O)Cc3ccc(N(CCCl)CCCl)cc3)CC1=CC[C@@H]1[C@@H]2CC[C@]2(C)C(=O)CC[C@@H]12
[10]
  T/C: 92 % of control
[15]
  T/C: 115 % of control
[11]
  T/C: 97 % of control
[16]
  T/C: 105 % of control
[17]
  T/C: 105 % of control

## CC12CCC(O)CC1CCC1C2CCC2(C)C(c3ccc(=O)oc3)CC3OC312 (stereo not given)
[18]
  T/C: 102 % of control
[19]
  T/C: 94 % of control
[20]
  T/C: 95 % of control
[21]
  T/C: 98 % of control
dose: 5.0 mg/kg/injection, schedule: Q01DX009 (ip), vehicle: saline with Tween-80
  T/C: 100 % of control
dose: 10.0 mg/kg/injection, schedule: Q01DX009 (ip), vehicle: saline with Tween-80
  T/C: 95 % of control

## C/C(=N\NC(N)=O)c1cccc(/C(C)=N/NC(N)=O)n1
[12]
  T/C: 91 % of control
[13]
  T/C: 96 % of control
[14]
  T/C: 86 % of control
[9]
  T/C: 88 % of control
[10]
  T/C: 86 % of control

## C=CC(C)NC(=S)NNC(=S)NC (stereo not given)
dose: 25.0 mg/kg/injection, schedule: Q01DX009 (ip), vehicle: saline + alcohol
  T/C: 97 % of control
dose: 50.0 mg/kg/injection, schedule: Q01DX009 (ip), vehicle: saline + alcohol
  T/C: 102 % of control
dose: 100.0 mg/kg/injection, schedule: Q01DX009 (ip), vehicle: saline + alcohol
  T/C: 104 % of control
dose: 200.0 mg/kg/injection, schedule: Q01DX009 (ip), vehicle: saline + alcohol
  T/C: 98 % of control
dose: 400.0 mg/kg/injection, schedule: Q01DX009 (ip), vehicle: saline + alcohol
  T/C: 97 % of control

## O=S(=O)(O)CNc1ccccc1
dose: 100.0 mg/kg/injection, schedule: Q04DX003 (ip), vehicle: saline
  T/C: 104 % of control
dose: 200.0 mg/kg/injection, schedule: Q04DX003 (ip), vehicle: saline
  T/C: 97 % of control
dose: 400.0 mg/kg/injection, schedule: Q04DX003 (ip), vehicle: saline
  T/C: 106 % of control

## CC1CN1C(=O)NCCCCCCNC(=O)N1CC1C (stereo not given)
dose: 1.25 mg/kg/injection, schedule: Q01DX009 (ip), vehicle: Klucel (hydroxypropylcellulose) (HPC)
  T/C: 151 % of control
dose: 1.25 mg/kg/injection, schedule: Q01DX009 (ip), vehicle: saline
  T/C: 152 % of control
dose: 2.5 mg/kg/injection, schedule: Q01DX009 (ip), vehicle: saline
  T/C: 180 % of control
[4]
  T/C: 158 % of control
dose: 5.0 mg/kg/injection, schedule: Q01DX009 (ip), vehicle: saline
  T/C: 202 % of control

## O=C(CCl)Nc1nccs1
[13]
  T/C: 103 % of control
[14]
  T/C: 100 % of control
[9]
  T/C: 93 % of control
[10]
  T/C: 87 % of control

Reference: PubChem BioAssay AID192 (DTP/NCI, 2004)
